The NIST ThermoML archive (doi:10.1021/acs.jced.8b00132)
“And” between values parts separate entries of the source, which are not always exact repeats. Equal entries are not always repeated. ± gives the expanded uncertainty stated by the source.

Conditions: Liquid, transient hot wire

O=C(C(F)(F)C(F)(F)F)C(F)(C(F)(F)F)C(F)(F)F [dodecafluoro-2-methylpentan-3-one]
thermal conductivity (182.75 K, 277 kPa): 0.07883 ± 0.0016 W/m/K
thermal conductivity (182.75 K, 315 kPa): 0.07859 ± 0.0016 W/m/K
thermal conductivity (182.89 K, 13189 kPa): 0.08133 ± 0.0017 W/m/K
thermal conductivity (182.89 K, 19887 kPa): 0.08218 ± 0.0017 W/m/K
thermal conductivity (182.89 K, 19910 kPa): 0.08244 ± 0.0017 W/m/K
thermal conductivity (182.89 K, 21592 kPa): 0.08301 ± 0.0017 W/m/K
thermal conductivity (182.89 K, 21600 kPa): 0.08295 ± 0.0017 W/m/K
thermal conductivity (182.9 K, 13187 kPa): 0.08114 ± 0.0017 W/m/K
thermal conductivity (183.09 K, 352 kPa): 0.0792 ± 0.0016 W/m/K
thermal conductivity (183.09 K, 355 kPa): 0.07913 ± 0.0016 W/m/K
thermal conductivity (183.16 K, 13354 kPa): 0.08121 ± 0.0017 W/m/K
thermal conductivity (183.16 K, 13358 kPa): 0.08178 ± 0.0017 W/m/K
thermal conductivity (183.18 K, 6554 kPa): 0.07996 ± 0.0016 W/m/K
thermal conductivity (183.18 K, 6555 kPa): 0.08035 ± 0.0016 W/m/K
thermal conductivity (183.19 K, 88 kPa): 0.07924 ± 0.0016 W/m/K
thermal conductivity (183.19 K, 92 kPa): 0.07941 ± 0.0016 W/m/K
thermal conductivity (183.21 K, 21596 kPa): 0.08274 ± 0.0017 W/m/K
thermal conductivity (183.21 K, 21614 kPa): 0.08282 ± 0.0017 W/m/K
thermal conductivity (183.22 K, 13197 kPa): 0.08104 ± 0.0017 W/m/K
thermal conductivity (183.22 K, 13203 kPa): 0.08122 ± 0.0017 W/m/K
thermal conductivity (183.22 K, 19909 kPa): 0.08195 ± 0.0017 W/m/K
thermal conductivity (183.22 K, 19917 kPa): 0.08246 ± 0.0017 W/m/K
thermal conductivity (183.46 K, 394 kPa): 0.07899 ± 0.0016 W/m/K
thermal conductivity (183.47 K, 372 kPa): 0.07904 ± 0.0016 W/m/K
thermal conductivity (183.49 K, 13357 kPa): 0.0812 ± 0.0017 W/m/K
thermal conductivity (183.49 K, 13358 kPa): 0.08133 ± 0.0017 W/m/K
thermal conductivity (183.51 K, 6548 kPa): 0.08023 ± 0.0016 W/m/K
thermal conductivity (183.51 K, 6554 kPa): 0.08027 ± 0.0016 W/m/K
thermal conductivity (183.52 K, 86 kPa): 0.07888 ± 0.0016 W/m/K
thermal conductivity (183.53 K, 84 kPa): 0.07899 ± 0.0016 W/m/K
thermal conductivity (183.57 K, 19904 kPa): 0.08223 ± 0.0017 W/m/K
thermal conductivity (183.57 K, 19917 kPa): 0.08242 ± 0.0017 W/m/K
thermal conductivity (183.57 K, 21616 kPa): 0.0827 ± 0.0017 W/m/K
thermal conductivity (183.57 K, 21619 kPa): 0.08258 ± 0.0017 W/m/K
thermal conductivity (183.58 K, 13189 kPa): 0.08088 ± 0.0017 W/m/K and 0.0813 ± 0.0017 W/m/K
thermal conductivity (183.86 K, 13353 kPa): 0.08129 ± 0.0017 W/m/K
thermal conductivity (183.86 K, 13354 kPa): 0.08129 ± 0.0017 W/m/K
thermal conductivity (183.88 K, 417 kPa): 0.07826 ± 0.0016 W/m/K
thermal conductivity (183.88 K, 441 kPa): 0.07853 ± 0.0016 W/m/K
thermal conductivity (183.88 K, 6566 kPa): 0.0801 ± 0.0016 W/m/K
thermal conductivity (183.88 K, 6568 kPa): 0.07993 ± 0.0016 W/m/K
thermal conductivity (183.9 K, 66 kPa): 0.07888 ± 0.0016 W/m/K
thermal conductivity (183.96 K, 21629 kPa): 0.08212 ± 0.0017 W/m/K
thermal conductivity (183.97 K, 19889 kPa): 0.08191 ± 0.0017 W/m/K
thermal conductivity (183.97 K, 19910 kPa): 0.08222 ± 0.0017 W/m/K
thermal conductivity (183.97 K, 21622 kPa): 0.0819 ± 0.0017 W/m/K
thermal conductivity (183.98 K, 13198 kPa): 0.08092 ± 0.0017 W/m/K
thermal conductivity (183.98 K, 13202 kPa): 0.08101 ± 0.0017 W/m/K
thermal conductivity (184.26 K, 13357 kPa): 0.08106 ± 0.0017 W/m/K
thermal conductivity (184.26 K, 13366 kPa): 0.08106 ± 0.0017 W/m/K
thermal conductivity (184.29 K, 6565 kPa): 0.07964 ± 0.0016 W/m/K
thermal conductivity (184.29 K, 6575 kPa): 0.07978 ± 0.0016 W/m/K
thermal conductivity (184.31 K, 72 kPa): 0.07867 ± 0.0016 W/m/K
thermal conductivity (184.31 K, 77 kPa): 0.07869 ± 0.0016 W/m/K
thermal conductivity (184.34 K, 428 kPa): 0.07819 ± 0.0016 W/m/K
thermal conductivity (184.34 K, 453 kPa): 0.0783 ± 0.0016 W/m/K
thermal conductivity (184.41 K, 19891 kPa): 0.08157 ± 0.0017 W/m/K
thermal conductivity (184.41 K, 19917 kPa): 0.08156 ± 0.0017 W/m/K
thermal conductivity (184.41 K, 21623 kPa): 0.08222 ± 0.0017 W/m/K
thermal conductivity (184.41 K, 21641 kPa): 0.08226 ± 0.0017 W/m/K
thermal conductivity (184.43 K, 13196 kPa): 0.0804 ± 0.0016 W/m/K
thermal conductivity (184.43 K, 13197 kPa): 0.08067 ± 0.0017 W/m/K
thermal conductivity (184.7 K, 13354 kPa): 0.08048 ± 0.0016 W/m/K
thermal conductivity (184.71 K, 13360 kPa): 0.0804 ± 0.0016 W/m/K
thermal conductivity (184.74 K, 6561 kPa): 0.07906 ± 0.0016 W/m/K
thermal conductivity (184.74 K, 6562 kPa): 0.07913 ± 0.0016 W/m/K
thermal conductivity (184.76 K, 74 kPa): 0.07764 ± 0.0016 W/m/K
thermal conductivity (184.77 K, 70 kPa): 0.07835 ± 0.0016 W/m/K
thermal conductivity (191.32 K, 109 kPa): 0.078 ± 0.0016 W/m/K
thermal conductivity (191.32 K, 120 kPa): 0.07787 ± 0.0016 W/m/K
thermal conductivity (191.32 K, 6011 kPa): 0.07821 ± 0.0016 W/m/K
thermal conductivity (191.32 K, 6012 kPa): 0.0792 ± 0.0016 W/m/K
thermal conductivity (191.32 K, 9411 kPa): 0.08012 ± 0.0016 W/m/K
thermal conductivity (191.33 K, 9419 kPa): 0.07979 ± 0.0016 W/m/K
thermal conductivity (191.63 K, 28269 kPa): 0.08273 ± 0.0017 W/m/K
thermal conductivity (191.63 K, 28273 kPa): 0.08292 ± 0.0017 W/m/K
thermal conductivity (191.63 K, 36162 kPa): 0.08425 ± 0.0017 W/m/K
thermal conductivity (191.64 K, 36124 kPa): 0.08408 ± 0.0017 W/m/K
thermal conductivity (191.64 K, 44196 kPa): 0.08537 ± 0.0018 W/m/K
thermal conductivity (191.64 K, 44213 kPa): 0.08541 ± 0.0018 W/m/K
thermal conductivity (191.64 K, 52630 kPa): 0.08621 ± 0.0018 W/m/K
thermal conductivity (191.65 K, 52615 kPa): 0.08649 ± 0.0018 W/m/K
thermal conductivity (191.65 K, 61105 kPa): 0.08792 ± 0.0018 W/m/K
